The text below walks through data of EP4650362A1, “NEUROPROTECTIVE PSD-95 POLYPEPTIDE INHIBITOR AND USE THEREOF” (Beijing Tuo Jie Biopharmaceutical Co. Ltd., priority 2023, dated 2024).

Read-outs that look alike come from different tables or passages of the source. Non-standard residues stand in square brackets, D forms with d. Residues, ends and D or L forms follow the SMILES beside them. Tle = CC(C)(C)[C@H](N)C(=O)O; Dab = NCC[C@H](N)C(=O)O; Aib = CC(C)(N)C(=O)O

Series [1] is described as follows: plasma stability test, rat plasma. It counts as in vitro ADME. How it is done:
(§1) Solution preparation: An appropriate amount of a test polypeptide compound was weighed out and dissolved in an appropriate amount of 1× PBS to form a 1 mM test solution. NA-1 and NoNO42 were used as positive drugs, propantheline bromide was used as a human plasma test control, and lovastatin was used as a rat plasma test control. Plasma stability test: 12.5 µL of the 1 mM test solution was added to a 495 µL pre-incubated plasma sample. […] For each incubation time, two parallel samples were set. Subsequently, 200 µL of stop solution was added to stop the incubation, and the mixtures were vortexed for 5 min. Then the mixtures were centrifuged at 10,000 rpm at 4 °C for 10 min to remove the protein in the sample, and 70 µL of the supernatant was transferred to a new 96-well plate (70 µL of water was added to each well beforehand) and well mixed. […] Sample pretreatment: […] LC-MS analysis: […] (2) Mass-spectrometric conditions: The mass spectrometry analysis used an electrospray ionization (ESI) source, a positive ion analysis mode, and a multi-reaction monitoring (MRM) scan mode. […] The plasma stability of the polypeptide compound

Series [2] has as its system rabbit whole blood. The series can be described thus: hemolysis risk test in rabbit whole blood. It counts as cell-based. As to conditions: concentration range of 1 to 50 µM. How it is done: Preparation of red blood cell suspension: 100 µL of fresh whole blood was collected, and 900 µL of 1× PBS solution was then added. The mixture was shaken on a plate shaker at 30 rpm for 5 min and then centrifuged at 1000 g for 5 min, and the supernatant was discarded. The above washing step was repeated until the supernatant no longer appeared red. The suspension was set aside for later use.
Preparation of test polypeptide solutions: An appropriate amount of 1× PBS solution was added to a powdered polypeptide, and the polypeptide was dissolved to form a standard stock solution. The stock solution was then diluted with 1× PBS to form test solutions with concentrations of 1, 3, 10, 30, 100, and 300 µg/mL, and two replicate wells were set for each concentration. Meanwhile, blank 1× PBS was used as a negative control, and a 1× PBS solution containing 0.1% Triton X-100 was used as a positive control.
Incubation: A test solution (500 µL) was added to the red blood cell suspension, and then the mixture was well shaken on a plate shaker at 30 rpm for 5 min, incubated at 37 °C for 1 h, and centrifuged at 1000 g for 5 min.
100 µL of the supernatant was transferred to a single well of a microplate. The absorbance at 540 nm was measured using a SpectraMax M5 microplate reader, and data analysis was performed using GraphPad Prism 9. The hemolysis rate (%) was calculated using the formula: (test sample absorbance - negative control absorbance) / (positive control absorbance - negative control absorbance) × 100%. A rate of less than 5% indicates the absence of hemolysis, while a rate of greater than 5% indicates the presence of hemolysis. Table 3. Testing of the hemolysis risk of the polypeptide compound
A method similar to that in section 3.3.2 was adopted, with the difference being that this test example used fresh rabbit whole blood instead.

Series [3] concerns the target T1, human PSD95-PDZ2 (Homo sapiens, UniProt P78352).
T1 construct: PDZ2 (155-249, the Flag-His-Avitag-TEVsite tag is italicized); made in house; host or cells: E. coli BL21-DE3 (PET vector)
Kind of series: binding ELISA with Biotin-PDZ2. An excerpt:
The three PDZ domains in the PSD95 protein are structurally similar. Binding to the PDZ1 and PDZ2 domains can effectively block PSD95-mediated neuroexcitotoxicity. However, the biological function of binding to the PDZ3 domain is unclear. Therefore, to avoid potential safety concerns, this test example assessed the selectivity of polypeptide compounds for the PDZ2 and PDZ3 domains, aiming to identify polypeptide compounds that specifically bind to the PDZ2 domain. Site-specifically biotinylated Biotin-PDZ2 and Biotin-PDZ3 proteins were used for binding ELISA assays. […] After the blocking was complete, the blocking solution was discarded, and the plate was washed three times with PBST buffer. […] After the incubation was complete, the reaction solutions in the microplate were discarded, and the plate was washed three times with PBST. 100 µL of HRP-SA secondary antibody (diluted at 1:2000) was added to each well, and the plate was incubated at 37 °C for 1 h. After the plate was washed three times with PBST, 100 µL of TMB chromogenic substrate was added. […] The absorbance at 450 nm was measured using a SpectraMax M5 microplate reader, and the binding EC50 values of the test compounds to Biotin-PDZ2 or Biotin-PDZ3 were calculated using GraphPad Prism 9. […] The abilities of polypeptide compounds to bind to human PSD95-PDZ2 and human PSD95-PDZ3

Series [4] is described as follows: plasma stability test with alteplase added, human plasma. Conditions: Human plasma + rt-PA (50 µg/mL alteplase), 25 µM. It counts as in vitro ADME. How it is done:
as §1, with “mixed. Plasma stability test with alteplase added: An appropriate amount of solid alteplase was weighed out, and an appropriate volume of water was added. The mixture was vortexed to dissolve alteplase, forming a 1 mg/mL solution of alteplase. 250 µL of the 1 mg/mL solution of alteplase was added to 4750 µL of plasma to form a plasma sample containing 50 µg/mL alteplase. The other procedures were the same as in the aforementioned "plasma stability test", with the difference being that the plasma sample containing 50 µg/mL alteplase was used instead of plasma.” for “mixed.”

Series [5] in a line: plasma stability test with alteplase added, rat plasma. It counts as in vitro ADME. Conditions: Rat plasma + rt-PA (50 µg/mL alteplase), 25 µM. How it is done:
as §1, with “mixed. Plasma stability test with alteplase added: An appropriate amount of solid alteplase was weighed out, and an appropriate volume of water was added. The mixture was vortexed to dissolve alteplase, forming a 1 mg/mL solution of alteplase. 250 µL of the 1 mg/mL solution of alteplase was added to 4750 µL of plasma to form a plasma sample containing 50 µg/mL alteplase. The other procedures were the same as in the aforementioned "plasma stability test", with the difference being that the plasma sample containing 50 µg/mL alteplase was used instead of plasma.” for “mixed.”

The mark [6] stands for this setting: Rat plasma, 25 µM, 0min (standard 100%).
The mark [7] stands for this setting: Rat plasma, 25 µM, 10min, read-out: Relative remaining compound content (%).
Where [8] appears, read: Rat plasma, 25 µM, 20min, read-out: Relative remaining compound content (%).
Setting [9] is: Rat plasma, 25 µM, 30min, read-out: Relative remaining compound content (%).
Setting [10] is: Rat plasma, 25 µM, 60min, read-out: Relative remaining compound content (%).

T1 sequence (P78352 155-249): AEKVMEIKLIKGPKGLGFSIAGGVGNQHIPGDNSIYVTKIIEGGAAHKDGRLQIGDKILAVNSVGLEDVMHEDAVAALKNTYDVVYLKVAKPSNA

In the case of `CC[C@H](C)[C@H](NC(=O)[C@H](CO)NC(=O)[C@H](CO)NC(=O)[C@H](CC(C)C)NC(=O)[C@@H](CCCCN)NC(=O)[C@H](CCCNC(=N)N)NC(=O)[C@H](CCCNC(=N)N)NC(=O)[C@@H](CCCNC(=N)N)NC(=O)[C@H](CCC(N)=O)NC(=O)[C@@H](CCCNC(=N)N)NC(=O)[C@H](CCCNC(=N)N)NC(=O)[C@H](CCCCN)NC(=O)[C@H](CCCCN)NC(=O)[C@@H](CCCNC(=N)N)NC(=O)CNC(=O)[C@@H](N)Cc1ccc(O)cc1)C(=O)N[C@@H](CCC(=O)O)C(=O)N[C@@H](CO)C(=O)N[C@@H](CC(=O)O)C(=O)N[C@H](C(=O)O)C(C)C` [NoNO42, YGrKKRrQrRRkLSSIESDV, reference compound] (H-YG[dR]KKR[dR]Q[dR]RR[dK]LSSIESDV-OH), in series [1] (rat, plasma), the amount remaining at 10 min, 25 µM worked out at 98.4%; the share remaining at 20 min, 25 µM turned out to be 93.6%; the fraction remaining at 0.5 h, 25 µM was found to be 93.6%; the amount remaining at 1 h, 25 µM was determined as 90.8%. Besides, in series [1] (rat, plasma), the amount remaining at 2 h, 25 µM was determined as 95%. Besides, the hemolysis rates entry in series [2] is reported as “less than 5%”. Also, the half-maximal effective concentration (EC50) in series [3] is 0.098 µM.
Regarding `CC(C)[C@H](NC(=O)[C@H](CC(=O)O)NC(=O)[C@@H](NC(=O)[C@@H](NC(=O)[C@@H](NC(=O)[C@@H](NC(=O)[C@H](CCN)NC(=O)C(C)(C)NC(=O)CNC(=O)[C@@H](CCCNC(=N)N)NC(=O)[C@@H](CCCNC(=N)N)NC(=O)[C@@H](CCCNC(=N)N)NC(=O)[C@@H](CCC(N)=O)NC(=O)[C@@H](CCCNC(=N)N)NC(=O)[C@@H](CCCNC(=N)N)NC(=O)[C@@H](CCCCN)NC(=O)[C@@H](CCCCN)NC(=O)[C@@H](CCCNC(=N)N)NC(=O)CNC(=O)[C@H](N)Cc1ccc(O)cc1)[C@@H](C)O)C(C)(C)C)C(C)(C)C)[C@@H](C)O)C(=O)O` [Polypeptide compound 14, y-G-r-k-k-r-r-q-r-r-r-G-Aib-Dab-T-Tle-Tle-T-D-V] (H-[dY]G[dR][dK][dK][dR][dR][dQ][dR][dR][dR]G[Aib][Dab]T[Tle][Tle]TDV-OH), the “Relative remaining compound content (%)” value is given as 100.0% in series [4] (0min (standard 100%)); 98.6% in series [4] (10min); 89.8% in series [4] (20min); 85.8% in series [4] (30min); 91.2% in series [4] (60min); 92.3% in series [4] (120min). Besides, the “Relative remaining compound content (%)” value in series [5] (0min (standard 100%)) stood at 100.0%; in series [5] (10min), 95.6%; in series [5] (20min) it was 90.4%; in series [5] (30min) it was 104.9%; in series [5] (60min) it was 105.4%; in series [5] (120min), 96.7%. Also, the “Relative remaining compound content (%)” value in series [1] (setting [6]) came to 100.0%. Also, in series [1] (setting [7]), the amount remaining at 10 min, 25 µM stood at 105%. Further, the fraction remaining at 20 min, 25 µM in series [1] (setting [8]) amounted to 117%. Moreover, the share remaining at 0.5 h, 25 µM in series [1] (setting [9]) came to 107%. In addition, the fraction remaining at 1 h, 25 µM in series [1] (setting [10]) amounted to 109%. Besides, the amount remaining at 2 h, 25 µM in series [1] (Rat plasma, 25 µM, 120min, read-out: Relative remaining compound content (%)) turned out to be 104%. Further, the hemolysis rates entry in series [2] is given as “less than 5%”. Besides, the EC50 in series [3] (plate coated with 2 µM test compound, Biotin-PDZ2 titrated, read-out: EC50 (PDZ2)) came to 0.076 µM.
`CC(C)[C@H](NC(=O)[C@H](CC(=O)O)NC(=O)[C@@H](NC(=O)[C@@H](NC(=O)[C@@H](NC(=O)[C@@H](NC(=O)[C@H](CCN)NC(=O)C(C)(C)NC(=O)CNC(=O)[C@@H](CCCNC(=N)N)NC(=O)[C@H](CCCNC(=N)N)NC(=O)[C@H](CCCNC(=N)N)NC(=O)[C@H](CCC(N)=O)NC(=O)[C@@H](CCCNC(=N)N)NC(=O)[C@H](CCCNC(=N)N)NC(=O)[C@H](CCCCN)NC(=O)[C@H](CCCCN)NC(=O)[C@H](N)CCCNC(=N)N)[C@@H](C)O)C(C)(C)C)C(C)(C)C)[C@@H](C)O)C(=O)O` [Polypeptide compound 22, r-K-K-R-r-Q-R-R-r-G-Aib-Dab-T-Tle-Tle-T-D-V] (H-[dR]KKR[dR]QRR[dR]G[Aib][Dab]T[Tle][Tle]TDV-OH): the “Relative remaining compound content (%)” value in series [4] (0min (standard 100%)) is given as 100.0%; in series [4] (10min) it was 97.9%; in series [4] (20min), 95.8%; in series [4] (30min), 102.8%; in series [4] (60min), 91.3%; in series [4] (120min), 95.6%. Also, the “Relative remaining compound content (%)” value in series [5] (0min (standard 100%)) was 100.0%; in series [5] (10min), 83.4%; in series [5] (20min) it was 72.2%; in series [5] (30min), 48.2%; in series [5] (60min), 13.7%; in series [5] (120min), 8.1%. Moreover, the “Relative remaining compound content (%)” value is 100.0% in series [1] (setting [6]) and 124.8% in series [1] (Rat plasma, 25 µM, 120min). Also, the amount remaining at 10 min, 25 µM in series [1] (setting [7]) stood at 116%. For the same compound, the share remaining at 20 min, 25 µM in series [1] (setting [8]) turned out to be 105%. Besides, the share remaining at 0.5 h, 25 µM in series [1] (setting [9]) turned out to be 110%. In addition, the share remaining at 1 h, 25 µM in series [1] (setting [10]) turned out to be 102%. For the same compound, in series [2], the hemolysis rates entry is on record as “less than 5%”.

As a reminder, the EC50 is the concentration that produces a half-maximal response.
